# Data: patent publication US8697683B2, “Azetidinyl diamides as monoacylglycerol lipase inhibitors” (Janssen Pharmaceutica, NV, priority 2009, dated 2014)
# Target: T1, MGL (Rattus norvegicus, UniProt Q8R431)
# T1 construct: one g rat brain was homogenized
# T1 sequence (Q8R431 1-303): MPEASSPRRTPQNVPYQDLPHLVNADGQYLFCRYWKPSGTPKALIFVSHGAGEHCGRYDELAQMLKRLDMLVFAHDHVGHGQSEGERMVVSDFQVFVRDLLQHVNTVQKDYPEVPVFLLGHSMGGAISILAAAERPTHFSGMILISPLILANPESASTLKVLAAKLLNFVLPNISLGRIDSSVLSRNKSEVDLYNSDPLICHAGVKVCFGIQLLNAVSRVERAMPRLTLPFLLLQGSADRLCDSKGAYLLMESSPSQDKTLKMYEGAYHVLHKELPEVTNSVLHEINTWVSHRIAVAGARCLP
# Assay: 2-AG Accumulation Assay (rat brain homogenate)
# Format: biochemical
# Conditions: compound 1 μM, percent of vehicle 2-AG accumulation
row,Rat Brain 2AG % VehCntrl (%) @1 μM [%],SMILES
1,1044,"O=C(c1ccc(-c2cccc(C(F)(F)F)c2)cc1)N1CC(N2CCN(C(=O)c3nccs3)CC2)C1 [Cpd 237, 1-(1,3-Thiazol-2-ylcarbonyl)-4-(1-{[3′-(trifluoromethyl)biphenyl-4-yl]carbonyl}azetidin-3-yl)piperazine]"
2,1097,"Cc1cc(-c2cccc(C(F)(F)F)c2)ccc1C(=O)N1CC(N2CCN(C(=O)c3nccs3)CC2)C1 [Cpd 239, 1-(1-{[3-Methyl-3′-(trifluoromethyl)biphenyl-4-yl]carbonyl}azetidin-3-yl)-4-(1,3-thiazol-2-ylcarbonyl)piperazine]"
3,1011,"O=C(c1nccs1)N1CCN(C2CN(C(=O)c3ccc(-c4cccc(C(F)(F)F)c4)cc3Cl)C2)CC1 [Cpd 250, 1-(1-{[3-Chloro-3′-(trifluoromethyl)biphenyl-4-yl]carbonyl}azetidin-3-yl)-4-(1,3-thiazol-2-ylcarbonyl)piperazine]"
4,1215,"O=C(c1nccs1)N1CCN(C2CN(C(=O)c3sc4cc(C(F)(F)F)ccc4c3Cl)C2)CC1 [Cpd 324, 1-(1-{[3-Chloro-6-(trifluoromethyl)-1-benzothiophen-2-yl]carbonyl}azetidin-3-yl)-4-(1,3-thiazol-2-ylcarbonyl)piperazine]"
5,1336,"O=C(c1nccs1)N1CCN(C2CN(C(=O)c3sc4cc(Br)ccc4c3Cl)C2)CC1 [Cpd 326, 1-{1-[(6-Bromo-3-chloro-1-benzothiophen-2-yl)carbonyl]azetidin-3-yl}-4-(1,3-thiazol-2-ylcarbonyl)piperazine]"
6,2111,"O=C(c1ccc2c(-c3ccccc3)cccc2c1)N1CC(N2CCN(C(=O)c3nccs3)CC2)C1 [Cpd 338, 1-{1-[(5-Phenylnaphthalen-2-yl)carbonyl]azetidin-3-yl}-4-(1,3-thiazol-2-ylcarbonyl)piperazine]"
7,1371,"O=C(c1nccs1)N1CCN(C2CN(C(=O)c3sc4cc(-c5ccccc5)ccc4c3Cl)C2)CC1 [Cpd 343, 1-{1-[(3-Chloro-6-phenyl-1-benzothiophen-2-yl)carbonyl]azetidin-3-yl}-4-(1,3-thiazol-2-ylcarbonyl)piperazine]"
8,1138,"O=C(c1ccc2c(c1)CCCN2Cc1ccc(C(F)(F)F)cc1)N1CC(N2CCN(C(=O)c3nccs3)CC2)C1 [Cpd 371, 6-({3-[4-(1,3-Thiazol-2-ylcarbonyl)piperazin-1-yl]azetidin-1-yl}carbonyl)-1-(4-trifluoromethylbenzyl)-1,2,3,4-tetrahydroquinoline]"

# Same assay, conditions: compound 10 μM, percent of vehicle 2-AG accumulation
row,SMILES,Rat Brain 2AG % VehCntrl (%) @10 μM [%]
1,"O=C(c1ccc(-c2ccccc2)cc1)N1CC(N2CCN(C(=O)c3nccs3)CC2)C1 [Cpd 9, 1-[1-(Biphenyl-4-ylcarbonyl)azetidin-3-yl]-4-(1,3-thiazol-2-ylcarbonyl)piperazine]",1026
2,"O=C(c1ccccc1)N1CCN(C2CN(C(=O)c3ccc4nc(-c5cccc(C(F)(F)F)c5)oc4c3)C2)CC1 [Cpd 131, 6-({3-[4-(Phenylcarbonyl)piperazin-1-yl]azetidin-1-yl}carbonyl)-2-[3-(trifluoromethyl)phenyl]-1,3-benzoxazole]",1406
3,"O=C(c1ccc(-c2ccc(C(F)(F)F)cc2)cc1)N1CC(N2CCN(C(=O)c3nccs3)CC2)C1 [Cpd 150, 1-(1,3-Thiazol-2-ylcarbonyl)-4-(1-{[4′-(trifluoromethyl)biphenyl-4-yl]carbonyl}azetidin-3-yl)piperazine]",1104
4,"N#Cc1cccc(-c2ccc(C(=O)N3CC(N4CCN(C(=O)c5nccs5)CC4)C3)cc2)c1 [Cpd 161, 4′-({3-[4-(1,3-Thiazol-2-ylcarbonyl)piperazin-1-yl]azetidin-1-yl}carbonyl)biphenyl-3-carbonitrile]",1280
5,"O=C(c1ccc(-c2cccc(Cl)c2)cc1)N1CC(N2CCN(C(=O)c3nccs3)CC2)C1 [Cpd 162, 1-{1-[(3′-Chlorobiphenyl-4-yl)carbonyl]azetidin-3-yl}-4-(1,3-thiazol-2-ylcarbonyl)piperazine]",1099
6,"O=C(c1ccc(-c2ccc(F)cc2)cc1)N1CC(N2CCN(C(=O)c3nccs3)CC2)C1 [Cpd 174, 1-{1-[(4′-Fluorobiphenyl-4-yl)carbonyl]azetidin-3-yl}-4-(1,3-thiazol-2-ylcarbonyl)piperazine]",1258
7,"O=C(c1ccc(-c2ccc(Cl)c(Cl)c2)cc1)N1CC(N2CCN(C(=O)c3nccs3)CC2)C1 [Cpd 175, 1-{1-[(3′,4′-Dichlorobiphenyl-4-yl)carbonyl]azetidin-3-yl}-4-(1,3-thiazol-2-ylcarbonyl)piperazine]",1180
8,"Cc1cccc(-c2ccc(C(=O)N3CC(N4CCN(C(=O)c5nccs5)CC4)C3)cc2)c1 [Cpd 176, 1-{1-[(3′-Methylbiphenyl-4-yl)carbonyl]azetidin-3-yl}-4-(1,3-thiazol-2-ylcarbonyl)piperazine]",1124
9,"O=C(c1ccc(-c2ccc(F)c(Cl)c2)cc1)N1CC(N2CCN(C(=O)c3nccs3)CC2)C1 [Cpd 178, 1-{1-[(3′-Chloro-4′-fluorobiphenyl-4-yl)carbonyl]azetidin-3-yl}-4-(1,3-thiazol-2-ylcarbonyl)piperazine]",1192
10,"O=C(c1ccc(-c2ccc3c(c2)OCO3)cc1)N1CC(N2CCN(C(=O)c3nccs3)CC2)C1 [Cpd 181, 1-(1-{[4-(1,3-Benzodioxol-5-yl)phenyl]carbonyl}azetidin-3-yl)-4-(1,3-thiazol-2-ylcarbonyl)piperazine]",1236
11,"O=C(c1ccc(-c2ccc3ccccc3c2)cc1)N1CC(N2CCN(C(=O)c3nccs3)CC2)C1 [Cpd 182, 1-{1-[(4-Naphthalen-2-ylphenyl)carbonyl]azetidin-3-yl}-4-(1,3-thiazol-2-ylcarbonyl)piperazine]",1500
12,"O=C(c1ccc(-c2cccc([N+](=O)[O-])c2)cc1)N1CC(N2CCN(C(=O)c3nccs3)CC2)C1 [Cpd 183, 1-{1-[(3′-Nitrobiphenyl-4-yl)carbonyl]azetidin-3-yl}-4-(1,3-thiazol-2-ylcarbonyl)piperazine]",1090
13,"CN(C)S(=O)(=O)Nc1cccc(-c2ccc(C(=O)N3CC(N4CCN(C(=O)c5ccccc5)CC4)C3)cc2)c1 [Cpd 205, N,N-Dimethyl-N′-[4′-({3-[4-(phenylcarbonyl)piperazin-1-yl]azetidin-1-yl}carbonyl)biphenyl-3-yl]sulfamide]",1172
14,"CC(=O)c1ccc(-c2ccc(C(=O)N3CC(N4CCN(C(=O)c5nccs5)CC4)C3)cc2)cc1 [Cpd 209, 1-[4′-({3-[4-(1,3-Thiazol-2-ylcarbonyl)piperazin-1-yl]azetidin-1-yl}carbonyl)biphenyl-4-yl]ethanone]",1681
15,"O=C(c1ccc(-c2ccc([N+](=O)[O-])cc2)cc1)N1CC(N2CCN(C(=O)c3nccs3)CC2)C1 [Cpd 215, 1-{1-[(4′-Nitrobiphenyl-4-yl)carbonyl]azetidin-3-yl}-4-(1,3-thiazol-2-ylcarbonyl)piperazine]",1091
16,"N#CC=Cc1cccc(-c2ccc(C(=O)N3CC(N4CCN(C(=O)c5nccs5)CC4)C3)cc2)c1 [Cpd 223, 3-[4′-({3-[4-(1,3-Thiazol-2-ylcarbonyl)piperazin-1-yl]azetidin-1-yl}carbonyl)biphenyl-3-yl]prop-2-enenitrile]",1261
17,"O=C(c1ccc(-c2cccc(C(F)(F)F)c2)cc1)N1CC(N2CCN(C(=O)c3cscn3)CC2)C1 [Cpd 229, 1-(1,3-Thiazol-4-ylcarbonyl)-4-(1-{[3′-(trifluoromethyl)biphenyl-4-yl]carbonyl}azetidin-3-yl)piperazine]",1304

# Next, values leading:
row,Rat Brain 2AG % VehCntrl (%) @10 μM [%],SMILES
1,1182,"O=C(c1ccc(-c2cccc(C(F)(F)F)c2)cc1)N1CC(N2CCN(C(=O)c3nccs3)CC2)C1 [Cpd 237, 1-(1,3-Thiazol-2-ylcarbonyl)-4-(1-{[3′-(trifluoromethyl)biphenyl-4-yl]carbonyl}azetidin-3-yl)piperazine]"
2,1353,"Cc1cc(-c2cccc(C(F)(F)F)c2)ccc1C(=O)N1CC(N2CCN(C(=O)c3nccs3)CC2)C1 [Cpd 239, 1-(1-{[3-Methyl-3′-(trifluoromethyl)biphenyl-4-yl]carbonyl}azetidin-3-yl)-4-(1,3-thiazol-2-ylcarbonyl)piperazine]"
3,1327,"O=C(c1nccs1)N1CCN(C2CN(C(=O)c3ccc(-c4cccc(C(F)(F)F)c4)cc3Cl)C2)CC1 [Cpd 250, 1-(1-{[3-Chloro-3′-(trifluoromethyl)biphenyl-4-yl]carbonyl}azetidin-3-yl)-4-(1,3-thiazol-2-ylcarbonyl)piperazine]"
4,1775,"CC1(C)CCC(C)(C)c2cc(CCC(=O)N3CC(N4CCN(C(=O)c5nccs5)CC4)C3)ccc21 [Cpd 282, 1-{1-[3-(5,5,8,8-Tetramethyl-5,6,7,8-tetrahydronaphthalen-2-yl)propanoyl]azetidin-3-yl}-4-(1,3-thiazol-2-ylcarbonyl)piperazine]"
5,1019,"CN(CC1CCCCC1)c1ccc(CCC(=O)N2CC(N3CCN(C(=O)c4nccs4)CC3)C2)cc1 [Cpd 291, N-(Cyclohexylmethyl)-N-methyl-4-(3-oxo-3-{3-[4-(1,3-thiazol-2-ylcarbonyl)piperazin-1-yl]azetidin-1-yl}propyl)aniline]"
6,1265,"O=C(c1nccs1)N1CCN(C2CN(C(=O)c3sc4cc(C(F)(F)F)ccc4c3Cl)C2)CC1 [Cpd 324, 1-(1-{[3-Chloro-6-(trifluoromethyl)-1-benzothiophen-2-yl]carbonyl}azetidin-3-yl)-4-(1,3-thiazol-2-ylcarbonyl)piperazine]"
7,2005,"O=C(c1cc2c(C(F)(F)F)cccc2s1)N1CC(N2CCN(C(=O)c3nccs3)CC2)C1 [Cpd 327, 1-(1,3-Thiazol-2-ylcarbonyl)-4-(1-{[4-(trifluoromethyl)-1-benzothiophen-2-yl]carbonyl}azetidin-3-yl)piperazine]"
8,1076,"O=C(c1ccc(OCc2ccc(Cl)c(Cl)c2)c(F)c1)N1CC(N2CCN(C(=O)c3nccs3)CC2)C1 [Cpd 400, 1-[1-({4-[(3,4-Dichlorobenzyl)oxy]-3 fluorophenyl}carbonyl)azetidin-3-yl]-4-(1,3-thiazol-2-ylcarbonyl)piperazine]"
9,1591,"O=C(c1ccc(OCc2cccc(Cl)c2Cl)c(F)c1)N1CC(N2CCN(C(=O)c3nccs3)CC2)C1 [Cpd 405, 1-[1-({4-[(2,3-Dichlorobenzyl)oxy]-3-fluorophenyl}carbonyl)azetidin-3-yl]-4-(1,3-thiazol-2-ylcarbonyl)piperazine]"
10,1271,"O=C(c1ccc(SCc2cccc(Cl)c2)cc1)N1CC(N2CCN(C(=O)c3nccs3)CC2)C1 [Cpd 412, 1-[1-({4-[(3-Chlorobenzyl)sulfanyl]phenyl}carbonyl)azetidin-3-yl]-4-(1,3-thiazol-2-ylcarbonyl)piperazine]"
